Data reported in patent publication US20060246149A1, “Antimicrobial pigments” (priority 2003, published 2006).

Experiments:
Assay in all cases: challenge test, germ count by Agar plates method
Format in all cases: cell-based
Details in all cases: 8% aqueous suspension
[1] = tested on: Candida albicans ATCC 10231
Procedure: (§1) A standard procedure to measure the anti-microbial activity of substances was used (challenge tests). A suspension of test organisms (10^5 to 10^6 germs/ml) is inoculated into a recipient containing already the substance to be tested. Samples of the inoculated suspension are taken and the number of germs is measured thanks to the Agar plates method. Germ counts is performed at t=0, t=24 h after the inoculation, t=48 h after the inoculation, t=7 days after the inoculation, t=14 days after the inoculation.
(§2) Sterile water containing 8% w/w of treated and untreated carriers were each investigated.

Escheria coli ATCC8739 = tested on: Escheria coli ATCC8739
Procedure: as §1, §2

[2] = tested on: Pseudomonas aeruginosa ATCC 9027
Procedure: as §1, §2

[3] = tested on: Staphylococcus aureus ATCC 6538
Procedure: as §1, §2

silver oxide [0.02% Ag2O]
0 germs/ml: Germs Number/ml after 48 h ([1]; 48 h) | Germs Number/ml after 7 d ([1]; 7 d) | Germs Number/ml after 14 d ([1]; 14 d) | Germs Number/ml after 24 h (Escheria coli ATCC8739; 24 h) | Germs Number/ml after 48 h (Escheria coli ATCC8739; 48 h) | Germs Number/ml after 7 d (Escheria coli ATCC8739; 7 d) | Germs Number/ml after 14 d (Escheria coli ATCC8739; 14 d) | Germs Number/ml after 24 h ([2]; 24 h) | Germs Number/ml after 48 h ([2]; 48 h) | Germs Number/ml after 7 d ([2]; 7 d) | Germs Number/ml after 14 d ([2]; 14 d) | Germs Number/ml after 24 h ([3]; 24 h) | Germs Number/ml after 48 h ([3]; 48 h) | Germs Number/ml after 14 d ([3]; 14 d)
